Measurements reported in paper PMC8293625, “HLA class-I-peptide stability mediates CD8^+ T cell immunodominance hierarchies and facilitates HLA-associated immune control of HIV” (Cell Reports, 2021).

Experiments:
[1] = target: Soluble HLA-A*0301 monomer (heavy chain and β2-microglobulin); test: differential scanning fluorimetry (thermal denaturation)
[2] = target: HLA-A*0301 on TAP-deficient mono-allelic 721.221 cells (human | human (endogenous in 721.221)); test: flow cytometry on cells
[3] = system: HLA class-I alleles A*0101, A*0201, A*0301, A*2402, B*0702, B*0801, B*1402, B*1501, B*2705, B*3501, B*3901, B*4001, B*4402, B*5201, B*5701, B*5801, B*8101 …; assay type: cell-based, human; conditions: section B*58, TAP-deficient mono-allelic 721.221 cells, relative anti-HLA MFI
HLA-B*5701 [4] = target: T1, HLA-B*5701 (Homo sapiens, UniProt P01889, D201E/D98Y/E176V/E187L/E204Q/E69M/E70A/G107R/I90N/K202T/L105A/L119I/N104I/N87E/Q89R/Q94S/R106L/R155S/R180L/R86G/S101N/S121V/S35A/S48A/T118I/V36M/Y140S/Y91M); test: Thermal denaturation (differential scanning fluorimetry) of soluble HLA class I-peptide monomers; assay type: binding; conditions: DSF, 2 μM pMHC, SYPRO orange; representative, performed twice as technical triplicates (Fig S4B)
Description: (§1) To confirm these observations and further validate the cell-based stability assay, we used an orthogonal approach to evaluate the relationship between HLA class-I-peptide stability and ID by assessing thermal denaturation of soluble HLA class-I-peptide complexes ([Hellman et al., 2016]). In this assay, soluble HLA class-I monomers with bound peptide are incubated in the presence of an environmentally sensitive fluorescent molecule whose fluorescence is enhanced when bound to exposed hydrophobic surfaces during protein unfolding. As a result, the thermal stability (Tm, defined as the temperature at which 50% of the protein is unfolded) of an HLA class-I-peptide complex can be determined by fluorometric measurements during incremental temperature increases, which serve as a proxy for the stabilizing capacity of a bound epitope ([Hellman et al., 2016]).
(§2) This relative difference in Tm between ID and SubD epitopes was also observed for HLA-A^∗02 and HLA-B^∗57 (Figure S4) and collectively was statistically significant (Figure 3C).
(§3) Expression, refold and purification of the soluble constructs of the pMHCs were performed as previously described ([Pierce et al., 2014]). Briefly, the HLA-A^∗02, HLA-A^∗03 and HLA-B^∗57 heavy chains, and β2-microglobulin were expressed in Escherichia coli and purified as inclusion bodies (IBs). The IBs were solubilized in 8M Urea. Target peptides were provided by the MGH Peptide Core. […]
(§4) Differential scanning fluorimetry was performed using a Bio-RAD CFX96 real time PCR system as previously described. Briefly, the excitation and emission wavelengths were set to 587 and 607 nm respectively, and the fluorescence intensity was measured after every 1°C rise in temperature starting from 20°C and going up to 95°C. […] Apparent Tm values were calculated by identifying the point at which the melting transition was 50% complete.

HLA-B*5701 [5] = target: T1, HLA-B*5701; test: Cell-based HLA class I-peptide concentration-based stability assay (TAP-deficient mono-allelic 721.221 cells); conditions: for Relative HLA MFI (10 uM) / Relative HLA MFI (100 uM): section B*57, TAP-deficient mono-allelic 721.221 cells, relative anti-HLA MFI; for Relative HLA MFI (10 uM): peptide 10 uM; for Relative HLA MFI (100 uM): peptide 100 uM; for anti-HLA MFI (surface HLA-B*5701): representative (Fig S2B)
Description: (§5) Controls without peptide, but the corresponding concentration of DMSO, were performed in parallel.

HLA-A*0301 [6] = target: T2, HLA-A*0301 (Homo sapiens, UniProt P04439); test: as above
Description: as §5

HLA-A*0301 [7] = target: T2, HLA-A*0301; test: Thermal denaturation (differential scanning fluorimetry) of soluble HLA class I-peptide monomers; assay type: binding; conditions: DSF, 2 μM pMHC, 10mM HEPES pH 7.4, 150 mM NaCl, SYPRO orange, 20–95°C in 1°C steps; representative (Fig 3B)
Description: as §1, §2, §3, §4

HIV A*03-restricted RK9 epitope ([…], Gag p17 20-28) (peptide)
Tm of the HLA-peptide complex [1]: 53 °C
percent stable HLA-peptide complexes on the surface after 4 h at 37°C with BFA [2]: 40%

HTQGYFPDW [HW9]
Relative HLA MFI (10 uM) ([3]; peptide 10 uM): 0.6285
Relative HLA MFI (100 uM) ([3]; peptide 100 uM): 1
thermal stability (Tm) of HLA-B*5701-peptide complex (HLA-B*5701 [4]): 57 °C
Relative HLA MFI (10 uM) (HLA-B*5701 [5]): 0.3192
Relative HLA MFI (100 uM) (HLA-B*5701 [5]): 0.6623

KAFSPEVIPMF [KF11]
thermal stability (Tm) of HLA-B*5701-peptide complex (HLA-B*5701 [4]): 57 °C
anti-HLA MFI (surface HLA-B*5701) (HLA-B*5701 [5]; absence of β2m): 426
anti-HLA MFI (surface HLA-B*5701) (HLA-B*5701 [5]; presence of β2m (3 µg/mL)): 565
Relative HLA MFI (10 uM) (HLA-B*5701 [5]): 0.2215
Relative HLA MFI (100 uM) (HLA-B*5701 [5]): 0.5689

RLAFHHVAR [RR9]
Relative HLA MFI (10 uM) (HLA-A*0301 [6]; HLA A*03 mono-allelic TAP-deficient 721.221 cells, peptide 10 uM, relative anti-HLA MFI): 0.003513
Relative HLA MFI (100 uM) (HLA-A*0301 [6]; HLA A*03 mono-allelic TAP-deficient 721.221 cells, peptide 100 uM, relative anti-HLA MFI): 0.03204
anti-HLA MFI (HLA-A*0301 surface stabilization) (HLA-A*0301 [6]; HLA-A*0301 + sgRNA TAP cells (Fig 3A), peptide concentration not given): 123
thermal stability (Tm) of HLA-A*0301-peptide complex (HLA-A*0301 [7]): 44 °C
